In this experiment the target is DGKα (Homo sapiens (Human), UniProt P23743). In words: Measurement of inhibitory effect against DGKα enzyme (ADP-Glo). Type of experiment: biochemical. As to the method:
Experimental Example: Measurement of Inhibitory Effect Against DGKα Enzyme
First, 3×OAG (3 mM)/ATP (0.45 mM) substrate solution was prepared from 1× substrate assay buffer (40 mM MOPS (pH 7.2), 20 mM MgCl2, 1 mM DTT, 0.4 mM CaCl2), 3 mM sodium deoxycholate, 100 mM NaCl, 0.1 mg/mL BSA, 0.12% NP-40), and vortexed thoroughly for 3 minutes to induce detergent-lipid micelle formation. Then, 3×DGKα (7.5 nM) enzyme solution was prepared from 2× enzyme assay buffer (80 mM MOPS (pH 7.2), 2 mM DTT, 200 mM NaCl, 0.2 mg/mL BSA) and vortexed for a short time.
After preparing the above two solutions, a half-area opaque 96-well assay plate was prepared, and 10 μL of 3× diluted compound solution (30 μM to 0 μM) was transferred to each well. Next, 10 μL of 3×DGK enzyme solution was transferred to the same plate, mixed by pipetting, and then 10 μL of 3×OAG/ATP substrate solution was added to the assay plate and mixed well. The plate was incubated at room temperature for 20 minutes for the enzyme reaction. Next, 15 μL of ADP-Glo reagent was added to each well and mixed by pipetting, followed by incubating the plate at room temperature for 40 minutes to deplete the remaining ATPs. After this step, 30 μL of kinase detection reagent was added and mixed, and the plate was incubated at room temperature for an additional 20 minutes and luminescence was measured by Envision to calculate the IC50 value of each compound.
The measurement results are represented in Table 1 (+: IC50>5 μM, ++: 5 μM>IC50>300 nM, +++: IC50<300 nM).

[1] abbreviates: DGKα enzyme, ADP-Glo luminescence, OAG/ATP substrate, 20 min room temperature, read-out: IC50.

pIC50: −log10 of the molar value. Like-named read-outs stand apart in the source and are kept apart here.

The text below walks through data of patent publication US20240067645A1, “HETEROCYCLIC COMPOUND AS DIACYLGLYCEROL KINASE INHIBITOR AND USE THEREOF” (LG CHEM, LTD., priority 2020, published 2024).

In general, pIC50 refers to −log10 of the IC50, conventionally taken in molar units.

Chain of DGKα (P23743 whole entry, species assumed): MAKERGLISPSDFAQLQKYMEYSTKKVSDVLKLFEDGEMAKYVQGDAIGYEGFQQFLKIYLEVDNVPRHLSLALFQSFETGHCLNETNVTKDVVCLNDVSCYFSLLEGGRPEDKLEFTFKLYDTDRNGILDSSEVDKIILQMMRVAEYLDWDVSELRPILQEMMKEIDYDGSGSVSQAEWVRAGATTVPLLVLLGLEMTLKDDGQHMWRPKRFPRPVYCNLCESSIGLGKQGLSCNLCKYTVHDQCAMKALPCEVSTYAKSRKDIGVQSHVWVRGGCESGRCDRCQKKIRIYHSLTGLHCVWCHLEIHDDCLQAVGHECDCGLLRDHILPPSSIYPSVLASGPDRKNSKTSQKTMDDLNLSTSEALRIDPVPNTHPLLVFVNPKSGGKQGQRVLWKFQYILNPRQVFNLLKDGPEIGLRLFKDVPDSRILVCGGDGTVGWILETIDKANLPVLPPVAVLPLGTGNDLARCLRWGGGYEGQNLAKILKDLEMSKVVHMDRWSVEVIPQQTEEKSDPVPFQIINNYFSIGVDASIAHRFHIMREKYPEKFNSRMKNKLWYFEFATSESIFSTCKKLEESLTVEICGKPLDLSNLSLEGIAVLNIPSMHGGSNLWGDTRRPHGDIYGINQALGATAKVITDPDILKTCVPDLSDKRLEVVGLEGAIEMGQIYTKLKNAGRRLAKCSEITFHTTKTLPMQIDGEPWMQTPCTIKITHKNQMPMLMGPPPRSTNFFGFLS

As for `Cc1ccc2c(n1)n(C1CCN(Cc3cccc4ccccc34)CC1)c(=O)c(=O)n2C` [Example 5, 1,6-dimethyl-4-(1-(naphthalen-1-ylmethyl)piperidin-4-yl)-1,4-dihydropyrido[2,3-b]pyrazine-2,3-dione], the pIC50 under setting [1] is above 6.52.
On to `Cn1c(=O)c(=O)n(C2CCN(Cc3ccc(OC(F)(F)F)cc3)CC2)c2ncc(C(N)=O)cc21` [Example 66, 1-methyl-2,3-dioxo-4-(1-(4-(trifluoromethoxy)benzyl)piperidin-4-yl)-1,2,3,4-tetrahydropyrido[2,3-b]pyrazine-7-carboxamide], for which the pIC50 under setting [1] was above 6.52.
Still for that read-out and setting: the result for `COc1ccc2c(n1)n(C1CCN(Cc3ccc(OC(F)(F)F)cc3)CC1)c(=O)c(=O)n2C` [Example 55, 6-methoxy-1-methyl-4-(1-(4-(trifluoromethoxy)benzyl)piperidin-4-yl)-1,4-dihydropyrido[2,3-b]pyrazine-2,3-dione] reads 5.30 to 6.52; that for `Cc1cnc2c(c1)n(C)c(=O)c(=O)n2C1CCN(Cc2cccc(Cl)c2)CC1` [Example 67, 4-(1-(3-chlorobenzyl)piperidin-4-yl)-1,7-dimethyl-1,4-dihydropyrido[2,3-b]pyrazine-2,3-dione], above 6.52.
On to `CN(C)C(=O)c1cnc2c(c1)n(C)c(=O)c(=O)n2C1CCN(Cc2ccc(OC(F)(F)F)cc2)CC1` [Example 64, N,N,1-trimethyl-2,3-dioxo-4-(1-(4-(trifluoromethoxy)benzyl)piperidin-4-yl)-1,2,3,4-tetrahydropyrido[2,3-b]pyrazine-7-carboxamide], for which the negative-log IC50 (pIC50) under setting [1] is below 5.30.
Still for that read-out and setting: the result for `Cn1c(=O)c(=O)n(C2CCN(C(c3cccc(Cl)c3)c3cccc(Cl)c3)CC2)c2ncc(Cl)cc21` [Example 45, 4-(1-(bis(3-chlorophenyl)methyl)piperidin-4-yl)-7-chloro-1-methyl-1,4-dihydropyrido[2,3-b]pyrazine-2,3-dione] reads 5.30 to 6.52; that for `C[C@@H]1CC(n2c(=O)c(=O)n(C)c3cc(Cl)cnc32)[C@@H](C)CN1Cc1ccc(OC(F)(F)F)cc1` (some centres unmarked) [Example 49], 5.30 to 6.52.
Take `Cn1c(=O)c(=O)n(C2CCN(Cc3ccc(OC(F)(F)F)cc3)CC2)c2ncc(C#N)cc21` [Example 47, 1-methyl-2,3-dioxo-4-(1-(4-(trifluoromethoxy)benzyl)piperidin-4-yl)-1,2,3,4-tetrahydropyrido[2,3-b]pyrazine-7-carbonitrile]: the negative-log IC50 (pIC50) under setting [1] was 5.30 to 6.52.
Same read-out and setting: the result for `Cc1nc2c(cc1Cl)n(C)c(=O)c(=O)n2C1CCN(Cc2ccc(OC(F)(F)F)cc2)CC1` [Example 50, 7-chloro-1,6-dimethyl-4-(1-(4-(trifluoromethoxy)benzyl)piperidin-4-yl)-1,4-dihydropyrido[2,3-b]pyrazine-2,3-dione] reads above 6.52.
On to `Cn1c(=O)c(=O)n([C@H]2C[C@H]3CC[C@@H](C2)N3Cc2ccc(OC(F)(F)F)cc2)c2ncc(Cl)cc21` [Example 57, 7-chloro-1-methyl-4-((1R,3r,5S)-8-(4-(trifluoromethoxy)benzyl)-8-azabicyclo[3.2.1]octan-3-yl)-1,4-dihydropyrido[2,3-b]pyrazine-2,3-dione], for which the pIC50 is 5.30 to 6.52.
Take `Cc1ccc2c(n1)n(C1CCN(Cc3cccc(Oc4ccccc4)c3)CC1)c(=O)c(=O)n2C` [Example 21, 1,6-dimethyl-4-(1-(3-phenoxybenzyl)piperidin-4-yl)-1,4-dihydropyrido[2,3-b]pyrazine-2,3-dione]: the pIC50 under setting [1] is 5.30 to 6.52.
As for `Cn1c(=O)c(=O)n(C2CCN(Cc3cccc(C(F)(F)F)c3)CC2)c2ncc(Cl)cc21` [Example 30, 7-chloro-1-methyl-4-(1-(3-(trifluoromethyl)benzyl)piperidin-4-yl)-1,4-dihydropyrido[2,3-b]pyrazine-2,3-dione], under setting [1], the negative logarithm of the IC50 (pIC50) is above 6.52.
For the molecule `CCn1c(=O)c(=O)n(C2CCN(Cc3ccc(OC(F)(F)F)cc3)CC2)c2ncccc21` [Example 3, ethyl-4-(1-(4-(trifluoromethoxy)benzyl)piperidin-4-yl)-1,4-dihydropyrido[2,3-b]pyrazine-2,3-dione], the pIC50 under setting [1] is 5.30 to 6.52.
For the molecule `Cc1ccc2c(n1)n(C1CCN(Cc3ccc(Oc4ccccc4)cc3)CC1)c(=O)c(=O)n2C` [Example 18, 1,6-dimethyl-4-(1-(4-phenoxybenzyl)piperidin-4-yl)-1,4-dihydropyrido[2,3-b]pyrazine-2,3-dione], the negative-log IC50 (pIC50) under setting [1] was above 6.52.
On the same count and under the same terms, the result for `Cn1c(=O)c(=O)n(C2CCN(Cc3cccc4c3CCCC4)CC2)c2ncc(Cl)cc21` [Example 37, 7-chloro-1-methyl-4-(1-((5,6,7,8-tetrahydronaphthalen-1-yl)methyl)piperidin-4-yl)-1,4-dihydropyrido[2,3-b]pyrazine-2,3-dione] reads above 6.52.
The same measure, in the same setting: the result for `Cn1c(=O)c(=O)n(C2CCN(Cc3ccc(OC(F)(F)F)cc3)CC2)c2nc(Cl)ccc21` [Example 54, 6-chloro-1-methyl-4-(1-(4-(trifluoromethoxy)benzyl)piperidin-4-yl)-1,4-dihydropyrido[2,3-b]pyrazine-2,3-dione] reads above 6.52.
Still for that read-out and setting: the result for `Cn1c(=O)c(=O)n(C2CCN(Cc3ccc(OC(F)(F)F)cc3)CC2)c2nc(C#N)c(Br)cc21` [Example 38, 7-bromo-1-methyl-2,3-dioxo-4-(1-(4-(trifluoromethoxy)benzyl)piperidin-4-yl)-1,2,3,4-tetrahydropyrido[2,3-b]pyrazine-6-carbonitrile] reads 5.30 to 6.52; that for `COC(=O)c1cnc2c(c1)n(C)c(=O)c(=O)n2C1CCN(Cc2ccc(OC(F)(F)F)cc2)CC1` [Example 60, methyl 1-methyl-2,3-dioxo-4-(1-(4-(trifluoromethoxy)benzyl)piperidin-4-yl)-1,2,3,4-tetrahydropyrido[2,3-b]pyrazine-7-carboxylate], above 6.52; that for `CC(C)n1cc(CN2CCC(n3c(=O)c(=O)n(C)c4cc(Cl)cnc43)CC2)cn1` [Example 52, 7-chloro-4-(1-((1-isopropyl-1H-pyrazol-4-yl)methyl)piperidin-4-yl)-1-methyl-1,4-dihydropyrido[2,3-b]pyrazine-2,3-dione], below 5.30.
As to `Cn1c(=O)c(=O)n(C2CCN(Cc3ccc(OC(F)(F)F)cc3)CC2)c2nc(C#N)c(C3CC3)cc21` [Example 44, 7-cyclopropyl-1-methyl-2,3-dioxo-4-(1-(4-(trifluoromethoxy)benzyl)piperidin-4-yl)-1,2,3,4-tetrahydropyrido[2,3-b]pyrazine-6-carbonitrile], the pIC50 under setting [1] was 5.30 to 6.52.
Turning to `Cc1ccnc2c1n(C)c(=O)c(=O)n2C1CCN(Cc2ccc(OC(F)(F)F)cc2)CC1` [Example 56, 1,8-dimethyl-4-(1-(4-(trifluoromethoxy)benzyl)piperidin-4-yl)-1,4-dihydropyrido[2,3-b]pyrazine-2,3-dione], under setting [1], the negative-log IC50 (pIC50) is below 5.30.
As for `CC(C)Cn1c(=O)c(=O)n(C2CCN(Cc3ccc(OC(F)(F)F)cc3)CC2)c2ncccc21` [Example 4, isobutyl-4-(1-(4-(trifluoromethoxy)benzyl)piperidin-4-yl)-1,4-dihydropyrido[2,3-b]pyrazine-2,3-dione], the pIC50 under setting [1] was below 5.30.
Turning to `Cn1c(=O)c(=O)n(C2CCN(Cc3ccc(OC(F)(F)F)cc3)CC2(C)C)c2ncc(Cl)cc21` (centres unmarked) [Example 31, 7-chloro-4-(3,3-dimethyl-1-(4-(trifluoromethoxy)benzyl)piperidin-4-yl)-1-methyl-1,4-dihydropyrido[2,3-b]pyrazine-2,3-dione], the pIC50 under setting [1] is 5.30 to 6.52.
The same measure, in the same setting: the result for `Cc1cnc2c(c1)n(C)c(=O)c(=O)n2C1CCN(Cc2ccc(OC(F)(F)F)cc2)CC1` [Example 61, 1,7-dimethyl-4-(1-(4-(trifluoromethoxy)benzyl)piperidin-4-yl)-1,4-dihydropyrido[2,3-b]pyrazine-2,3-dione] reads above 6.52.
`Cn1c(=O)c(=O)n(C2CCN(Cc3ccc(OC(F)(F)F)cc3)CC2)c2ncc(C3CC3)cc21` [Example 40, 7-cyclopropyl-1-methyl-4-(1-(4-(trifluoromethoxy)benzyl)piperidin-4-yl)-1,4-dihydropyrido[2,3-b]pyrazine-2,3-dione]: the negative-log IC50 (pIC50) under setting [1] is below 5.30.
The same measure, in the same setting: the result for `Cn1c(=O)c(=O)n(C2CCN(Cc3ccc(OC(F)(F)F)cc3)CC2)c2ncccc21` [Example 1, methyl-4-(1-(4-(trifluoromethoxy)benzyl)piperidin-4-yl)-1,4-dihydropyrido[2,3-b]pyrazine-2,3-dione] reads above 6.52; that for `Cn1c(=O)c(=O)n(C2CCN(Cc3ccc(OC(F)(F)F)cc3)CC2)c2ncc(F)cc21` [Example 59, 7-fluoro-1-methyl-4-(1-(4-(trifluoromethoxy)benzyl)piperidin-4-yl)-1,4-dihydropyrido[2,3-b]pyrazine-2,3-dione], 5.30 to 6.52; that for `CC(=O)c1cnc2c(c1)n(C)c(=O)c(=O)n2C1CCN(Cc2ccc(OC(F)(F)F)cc2)CC1` [Example 48, 7-acetyl-1-methyl-4-(1-(4-(trifluoromethoxy)benzyl)piperidin-4-yl)-1,4-dihydropyrido[2,3-b]pyrazine-2,3-dione], above 6.52.
On to `Cc1ccc2c(n1)n(C1CCN(C(C)c3ccc4nccnc4c3)CC1)c(=O)c(=O)n2C` (centres unmarked) [Example 24, 1,6-dimethyl-4-(1-(1-(quinoxalin-6-yl)ethyl)piperidin-4-yl)-1,4-dihydropyrido[2,3-b]pyrazine-2,3-dione], for which the negative logarithm of the IC50 (pIC50) under setting [1] is below 5.30.
